Test system: umbilical vessel explant / cultured cells
Experiment: Umbilical vessel ring assays, photomicrographs of cultured cells (FIGS. 1-3)
Type: cell-based, human
Protocol: FIGS. 1(A-D). Photomicrographs of cultured cells in umbilical vessel ring assays as described in Section 6.2. A. Positive control. The explant was cultured in media+EGCF 200 μg/ml. […] B. Negative control. The explant was cultured in placental conditioned media+supplement. In the absence of EGCF, fewer cells migrated from the explant than in the positive control (A). C. Treatment Group 3. The explant was cultured in placental conditioned media+EGCF 200 μg/ml+Thalomid™ 100 μg/ml. […] D. Treatment Group 2. The explant was cultured in placental conditioned media+EGCF 200 μg/ml+Thalomid™ 10 μg/ml.
FIGS. 2(A-C). Photomicrographs of cultured cells in umbilical vessel ring assays as described in Section 6.2. A. Control. Cells were cultured in placental conditioned media+ECGF 200 μg/ml+DMSO 1 μg/ml. B. Cells were cultured in placental conditioned media+ECGF 200 μg/ml+DMSO 1 μg/ml+Thalomid™ 1 μg/ml. […]. Cells were cultured in placental conditioned media+ECGF 200 μg/ml+DMSO 1 μg/ml+Thalomid™ 10 μg/ml.
FIGS. 3(A-B). Photomicrographs of cultured cells in umbilical vessel ring assays as described in Section 6. A. Control. Cells were cultured in placental conditioned media+DMSO. […] B. Cells were cultured in placental conditioned media+DMSO+Thalomid™.
Embryonic-like stem cells were isolated from placenta as described above in Section 5.4. The embryonic-like stem cells were cultured using the culture conditions described above.

O=C1CCC(N2C(=O)c3ccccc3C2=O)C(=O)N1 (centres unmarked) [Thalomid, thalidomide, reference compound]
cell phenotype (branching / non-branching) (placental conditioned media + DMSO (FIG. 3)): More cells exhibit a branching (e.g., neuronal) phenotype than in the control
number of cells seen (placental conditioned media + ECGF 200 μg/ml + DMSO 1 μg/ml + 1 μg/ml (FIG. 2)): Fewer cells are seen than in the control
number of cells seen (placental conditioned media + ECGF 200 μg/ml + DMSO 1 μg/ml + 10 μg/ml (FIG. 2)): Fewer cells are seen than in the control (A) or in (B)
cell migration from the explant and outgrowth (placental conditioned media + EGCF 200 μg/ml + 10 μg/ml (FIG. 1D)): cells migrated a shorter distance from the explant and they exhibited less dense outgrowth than in the positive control
cell migration from the explant (placental conditioned media + EGCF 200 μg/ml + 100 μg/ml (FIG. 1C)): cells migrated a shorter distance from the explant than in the positive control
